Measurements: patent US8337900B2, “Reverse-phase microcapsules for active ingredients, simplified process of manufacture thereof and combined formulation WDG-CS, ZC, EC-SC, and CX” (priority 2006, dated 2012)

Legend:
[1] = Stability to hydrolysis versus commercial formulations; format: physicochemical; settings: in a CX, microencapsulated in NPμ and combined with sulfosate
Excerpt: This refers to the typical variations: thifensulfuron-ethyl<→thifensulfuron, etc.

[2] = cited from earlier work
[3] = Accelerated heat stability test (54° C.), physical stability and chemical degradation by HPLC; format: physicochemical; settings: NPμ in a CX-w; results and process not shown
Protocol: Both formulations were submitted to accelerated heat stability tests (at 54° C. for 2 weeks).
Also, presence of unencapsulated material—water soluble a.i.—was below 0.1%.
These tests were performed with HPLC and standard methods of analysis under Good Laboratory Practice conditions.

With COc1cc(OC)nc(NC(=O)NS(=O)(=O)c2ncccc2C(=O)N(C)C)n1 [nicosulfuron] the “more stable to hydrolysis than current commercial formulations” value [1] was “at least 20 % times”.
In the case of CC(C)(C)C(O)(CCc1ccc(Cl)cc1)Cn1cncn1 (centres unmarked) [tebuconazole], the solubility in hexane ([2]; hexane) is listed as “lower than 0.1 g/L”.
For O=C(O)c1cc(Oc2ccc(C(F)(F)F)cc2Cl)ccc1[N+](=O)[O-] [acifluorfen-sodium], the solubility in isooctanol ([2]; isooctanol) is listed as “around 6 g/L” and the solubility in water ([2]; water) is listed as “about 60 g/L”.
For COC(=O)c1ccccc1S(=O)(=O)NC(=O)N(C)c1nc(C)nc(OC)n1 [tribenuron-methyl], the “degradation inhibition by microencapsulation” value [3] was “equally observed”.
